# Measured values: PubChem BioAssay (NCI)
#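 Dose response: 5 concentrations. Exposure: 48 h. Format: 96-well plates. Endpoint: linear interpolation; highest concentration if not reached. At the GI50, growth is halved. TGI denotes the concentration required for complete inhibition of growth.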
# Columns and labels:
# Assay in all cases: NCI anticancer screen, dose series, 48 h
# 786-0 renal = system: 786-0 renal
# A498 renal = system: A498 renal
# A549 NSCLC = system: A549 NSCLC
# ACHN renal = system: ACHN renal
# BT-549 breast = system: BT-549 breast
# CAKI-1 renal = system: CAKI-1 renal
# CCRF-CEM leukemia = system: CCRF-CEM leukemia
# COLO 205 colon = system: COLO 205 colon
# EKVX NSCLC = system: EKVX NSCLC
# HCC-2998 colon = system: HCC-2998 colon
# HCT-116 colon = system: HCT-116 colon
# HCT-15 colon = system: HCT-15 colon
# HOP-62 NSCLC = system: HOP-62 NSCLC
# HS 578T breast = system: HS 578T breast
# HT29 colon = system: HT29 colon
# K-562 leukemia = system: K-562 leukemia
# KM12 colon = system: KM12 colon
# LOX IMVI melanoma = system: LOX IMVI melanoma
# M14 melanoma = system: M14 melanoma
# MCF7 breast = system: MCF7 breast
# MDA-MB-231 breast = system: MDA-MB-231 breast
# MDA-MB-435 = system: MDA-MB-435
# NCI-H226 lung = system: NCI-H226 lung
# NCI-H23 lung = system: NCI-H23 lung
# NCI-H460 lung = system: NCI-H460 lung
# NCI-H522 lung = system: NCI-H522 lung
# NCI/ADR-RES ovarian = system: NCI/ADR-RES ovarian
# OVCAR-4 ovarian = system: OVCAR-4 ovarian
# OVCAR-5 ovarian = system: OVCAR-5 ovarian
# OVCAR-8 ovarian = system: OVCAR-8 ovarian
# PC-3 prostate = system: PC-3 prostate
# RPMI-8226 leukemia = system: RPMI-8226 leukemia
# RXF 393 renal = system: RXF 393 renal
# SF-268 CNS = system: SF-268 CNS
# SK-MEL-2 melanoma = system: SK-MEL-2 melanoma
# SK-MEL-28 melanoma = system: SK-MEL-28 melanoma
# SK-MEL-5 melanoma = system: SK-MEL-5 melanoma
# SK-OV-3 ovarian = system: SK-OV-3 ovarian
# SN12C renal = system: SN12C renal
# SNB-19 CNS = system: SNB-19 CNS
# SNB-75 CNS = system: SNB-75 CNS
# SW-620 colon = system: SW-620 colon
# T-47D breast = system: T-47D breast
# TK-10 renal = system: TK-10 renal
# U251 CNS = system: U251 CNS
# UACC-62 melanoma = system: UACC-62 melanoma
# UO-31 renal = system: UO-31 renal
smiles,measurement,setting,value
C#Cc1nc(/C=C\CCCCCCC(=O)NO)cs1,GI50,786-0 renal,0.376 µM
same,TGI,786-0 renal,12.6 µM
same,GI50,A498 renal,1.68 µM
same,TGI,A498 renal,3.3 µM
same,GI50,A549 NSCLC,2.94 µM
same,TGI,A549 NSCLC,11.4 µM
same,GI50,ACHN renal,2.33 µM
same,TGI,ACHN renal,6.46 µM
same,GI50,BT-549 breast,4.53 µM
same,TGI,BT-549 breast,42.5 µM
same,GI50,CAKI-1 renal,1.82 µM
same,TGI,CAKI-1 renal,4.27 µM
same,GI50,CCRF-CEM leukemia,0.329 µM
same,TGI,CCRF-CEM leukemia,11.6 µM
same,GI50,COLO 205 colon,1.9 µM
same,TGI,COLO 205 colon,3.82 µM
same,GI50,EKVX NSCLC,5.23 µM
same,TGI,EKVX NSCLC,> 100 µM
same,GI50,HCC-2998 colon,5.58 µM
same,TGI,HCC-2998 colon,18.1 µM
same,GI50,HCT-116 colon,2.01 µM
same,TGI,HCT-116 colon,7.74 µM
same,GI50,HCT-15 colon,3 µM
same,TGI,HCT-15 colon,13.4 µM
same,GI50,HOP-62 NSCLC,2.67 µM
same,TGI,HOP-62 NSCLC,11.4 µM
same,GI50,HS 578T breast,2 µM
same,TGI,HS 578T breast,8.41 µM
same,GI50,HT29 colon,2.6 µM
same,TGI,HT29 colon,7.5 µM
same,GI50,K-562 leukemia,2.1 µM
same,TGI,K-562 leukemia,> 100 µM
same,GI50,KM12 colon,3.25 µM
same,TGI,KM12 colon,11.8 µM
same,TGI,LOX IMVI melanoma,0.0231 µM
same,GI50,M14 melanoma,3.65 µM
same,TGI,M14 melanoma,19.9 µM
same,GI50,MCF7 breast,2.94 µM
same,TGI,MCF7 breast,> 100 µM
same,GI50,MDA-MB-231 breast,2.59 µM
same,TGI,MDA-MB-231 breast,6.25 µM
same,GI50,MDA-MB-435,2.75 µM
same,TGI,MDA-MB-435,11.8 µM
same,GI50,NCI-H226 lung,2.81 µM
same,TGI,NCI-H226 lung,9.71 µM
same,GI50,NCI-H23 lung,0.964 µM
same,TGI,NCI-H23 lung,2.39 µM
same,GI50,NCI-H460 lung,2.72 µM
same,TGI,NCI-H460 lung,16.4 µM
same,GI50,NCI-H522 lung,0.177 µM
same,TGI,NCI-H522 lung,0.352 µM
same,GI50,NCI/ADR-RES ovarian,0.861 µM
same,TGI,NCI/ADR-RES ovarian,5.83 µM
same,GI50,OVCAR-4 ovarian,2.05 µM
same,TGI,OVCAR-4 ovarian,5.77 µM
same,GI50,OVCAR-5 ovarian,2.63 µM
same,TGI,OVCAR-5 ovarian,11.5 µM
same,GI50,OVCAR-8 ovarian,2 µM
same,TGI,OVCAR-8 ovarian,8.77 µM
same,GI50,PC-3 prostate,3.41 µM
same,TGI,PC-3 prostate,20.1 µM
same,GI50,RPMI-8226 leukemia,1.54 µM
same,TGI,RPMI-8226 leukemia,4.96 µM
same,GI50,RXF 393 renal,1.72 µM
same,TGI,RXF 393 renal,4.14 µM
same,GI50,SF-268 CNS,2.84 µM
same,TGI,SF-268 CNS,7.64 µM
same,GI50,SK-MEL-2 melanoma,2.72 µM
same,TGI,SK-MEL-2 melanoma,8.53 µM
same,GI50,SK-MEL-28 melanoma,3.69 µM
same,TGI,SK-MEL-28 melanoma,30.1 µM
same,GI50,SK-MEL-5 melanoma,2.38 µM
same,TGI,SK-MEL-5 melanoma,6.69 µM
same,GI50,SK-OV-3 ovarian,2.49 µM
same,TGI,SK-OV-3 ovarian,7.44 µM
same,GI50,SN12C renal,4.02 µM
same,TGI,SN12C renal,> 100 µM
same,GI50,SNB-19 CNS,3.99 µM
same,TGI,SNB-19 CNS,23 µM
same,GI50,SNB-75 CNS,1.4 µM
same,TGI,SNB-75 CNS,4.27 µM
same,GI50,SW-620 colon,1.69 µM
same,TGI,SW-620 colon,4.2 µM
same,GI50,T-47D breast,1.62 µM
same,TGI,T-47D breast,4.24 µM
same,GI50,TK-10 renal,1.68 µM
same,TGI,TK-10 renal,6.36 µM
same,GI50,U251 CNS,1.86 µM
same,TGI,U251 CNS,3.96 µM
same,GI50,UACC-62 melanoma,1.35 µM
same,TGI,UACC-62 melanoma,3.29 µM
same,GI50,UO-31 renal,0.163 µM
same,TGI,UO-31 renal,0.318 µM
